Measured values as given in paper PMC5587574, “Carbonyl reductase 1 catalyzes 20β-reduction of glucocorticoids, modulating receptor activation and metabolic complications of obesity” (Scientific Reports, 2017).

Molecular target: T1, Carbonyl reductase 1 (CBR1) (Homo sapiens, UniProt P16152)
T1 construct: recombinant human CBR1
T1 sequence (P16152 2-277): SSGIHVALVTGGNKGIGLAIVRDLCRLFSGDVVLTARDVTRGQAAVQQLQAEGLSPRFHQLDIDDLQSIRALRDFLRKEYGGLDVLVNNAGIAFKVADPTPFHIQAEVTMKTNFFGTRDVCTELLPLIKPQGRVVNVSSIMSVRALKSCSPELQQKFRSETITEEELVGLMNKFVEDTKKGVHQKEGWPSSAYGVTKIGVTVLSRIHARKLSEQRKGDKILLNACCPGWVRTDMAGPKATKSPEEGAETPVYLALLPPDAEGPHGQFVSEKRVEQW
Experiment: conversion by recombinant enzyme, LC-MS/MS
Assay type: biochemical

SMILES: C[C@]12CCC(=O)C=C1CC[C@@H]1[C@@H]2[C@@H](O)C[C@@]2(C)[C@H]1CC[C@]2(O)C(=O)CO [F, cortisol]
- conversion by recombinant enzyme, LC-MS/MS: 1.2 ± 0.4 ng/mg CBR1 protein per minute
